Measured values published in patent US10421782B2, “Cyclic cationic peptides with antimicrobial activity” (I.C.F. S.R.L., priority 2012, dated 2019).
Values after ≈ are worked out from the molar mass of the structure shown. Read-outs that look alike come from different tables or passages of the source. Where a SMILES comes first, the peptide text is derived from it. Bridges are numbered along the chain shown (N, C = ends).

Key:
[1] = system: Escherichia coli ATCC 25922; type: cell-based
Procedure: (§1) For each bacterial strain, 3-5 morphologically similar colonies were drawn from fresh cultures, inoculated in Brain Hearth Infusion broth liquid medium and incubated at the temperature of 37° C. under shaking at 225 r.p.m. for 3-4 h. Subsequently, the bacterial suspension was centrifuged at 1000 g for 20 min and the thus obtained pellet was resuspended in phosphate buffer 10 mM. Turbidity was measured in a spectrophotometer with absorbance at 600 nm, equivalent in the range 0.08-0.13 to a concentration of about 10^8 CFU/ml. The bacterial suspension was diluted 1:100 in phosphate buffer 10 mM, and within 30 min 50 microliters of such bacterial suspension (10^6 CFU/ml) were inoculated in each well of the microtiter plate, to obtain a final bacterial concentration of about 5×10^5 CFU/ml.
(§2) Several peptides were tested for their ability to inhibit bacterial growth in liquid culture. Fifty microliters of peptide at a concentration comprised between about 0.2 mM and 50 mM were added in 96-well U-bottom plates containing liquid growth medium and one of the following bacteria: Escherichia coli ATCC 25922, P. aeruginosa ATCC 27853, Stenotrophomonas maltophilia ATCC 13637. After 2 hour incubation at 37° C., bacteria were transferred on a solid medium. As a growth control, bacterial cultures were cultured in the absence of peptides.
(§3) The bacterial suspension was put in contact for two hours with different concentrations of the peptide at the temperature of 37° C. After incubation, 20 μl were drawn from the wells of each dilution and seeded on solid medium, agar McConkey. The inoculum was evenly distributed on the agarized medium by means of a sterile disposable loop. After incubation for 24 h at the temperature of 37° C., counting of the bacterial colonies (CFU) was performed.

[2] = system: Pseudomonas aeruginosa ATCC 27853; type: cell-based
Procedure: as §1, §2, §3

[3] = further tests, test of Table 2a

CC[C@H](C)[C@H](NC(=O)[C@H](C)N)C(=O)N[C@H]1CSSC[C@@H](C(=O)N[C@@H](CCCCN)C(=O)O)NC(=O)[C@H](C)NC(=O)[C@H](CCCCN)NC(=O)[C@H](Cc2c[nH]c3ccccc23)NC(=O)[C@H](CCCCN)NC(=O)[C@H](Cc2c[nH]cn2)NC(=O)CNC(=O)[C@H](CCCNC(=N)N)NC(=O)[C@H](Cc2ccc(O)cc2)NC(=O)[C@H](CCCCN)NC(=O)[C@H](Cc2c[nH]c3ccccc23)NC(=O)[C@H]([C@@H](C)O)NC(=O)[C@H](CCCNC(=N)N)NC1=O [SEQ.ID.NO.: 4, Ala*Ile*Cys*Arg*Thr*Trp*Lys*Tyr*Arg*Gly*His*Lys*Trp*Lys*Ala*Cys*Lys*] (H-AICRTWKYRGHKWKACK-OH; disulfide 3-16; N-terminus and C-terminus assumed)
MBC E. coli ATCC 25922 ([1]; ATCC 25922): 17.37 µg/mL (≈ 8.14 µM) | MBC P. aeruginosa ATCC 27853 ([2]; ATCC 27853): 1.14 µg/mL (≈ 0.534 µM)

N=C(N)NCCC[C@@H]1NC(=O)[C@H](Cc2ccccc2)NC(=O)[C@H](CCCNC(=N)N)NC(=O)[C@H](Cc2ccc(O)cc2)NC(=O)[C@@H]2CCCN2C(=O)[C@H](Cc2ccccc2)NC(=O)[C@@H](NC(=O)[C@H](CCCCN)NC(=O)[C@@H](N)CCCNC(=N)N)CSSC[C@@H](C(=O)N[C@@H](Cc2ccc(O)cc2)C(=O)O)NC(=O)[C@H](CCCCN)NC(=O)[C@H](CCCCN)NC(=O)[C@H](Cc2ccccc2)NC(=O)[C@H](CCCNC(=N)N)NC(=O)[C@H](CCCCN)NC(=O)CNC1=O [SEQ.ID.NO.: 5, Arg*Lys*Cys*Phe*Pro*Tyr*Arg*Phe*Arg*Gly*Lys*Arg*Phe*Lys*Lys*Cys*Tyr*] (H-RKCFPYRFRGKRFKKCY-OH; disulfide 3-16; N-terminus and C-terminus assumed)
MBC E. coli ATCC 25922 ([1]; ATCC 25922): 1.08 µg/mL (≈ 0.473 µM) | MBC P. aeruginosa ATCC 27853 ([2]; ATCC 27853): 1.09 µg/mL (≈ 0.478 µM)

C[C@@H](O)[C@@H]1NC(=O)[C@H](Cc2ccccc2)NC(=O)[C@@H](NC(=O)[C@H](CCCCN)NC(=O)[C@@H](N)CCCCN)CSSC[C@@H](C(=O)NCC(=O)O)NC(=O)[C@H](CCCCN)NC(=O)[C@H](CCCNC(=N)N)NC(=O)[C@H](Cc2ccc(O)cc2)NC(=O)[C@H](CC(N)=O)NC(=O)[C@H](CCCCN)NC(=O)CNC(=O)[C@H](CCCNC(=N)N)NC(=O)[C@H](Cc2c[nH]c3ccccc23)NC(=O)[C@H](CCCCN)NC(=O)[C@H](Cc2c[nH]c3ccccc23)NC1=O [SEQ.ID.NO.: 6, Lys*Lys*Cys*Phe*Thr*Trp*Lys*Trp*Arg*Gly*Lys*Asn*Tyr*Arg*Lys*Cys*Gly*] (H-KKCFTWKWRGKNYRKCG-OH; disulfide 3-16; N-terminus and C-terminus assumed)
MBC E. coli ATCC 25922 ([1]; ATCC 25922): 1.81 µg/mL (≈ 0.827 µM) | MBC P. aeruginosa ATCC 27853 ([2]; ATCC 27853): 0.4 µg/mL (≈ 0.183 µM)

CC(C)C[C@H](NC(=O)[C@@H]1CSSC[C@H](NC(=O)CNC(=O)[C@@H](N)CCCNC(=N)N)C(=O)N[C@@H](Cc2c[nH]c3ccccc23)C(=O)N[C@@H](CCCNC(=N)N)C(=O)N[C@@H](Cc2c[nH]c3ccccc23)C(=O)N[C@@H](CCCCN)C(=O)N[C@@H](Cc2c[nH]c3ccccc23)C(=O)N[C@@H](CCCNC(=N)N)C(=O)NCC(=O)N[C@@H](C(C)C)C(=O)N[C@@H](Cc2c[nH]c3ccccc23)C(=O)N[C@@H](Cc2ccc(O)cc2)C(=O)N[C@@H](CCCCN)C(=O)N[C@@H](CCCCN)C(=O)N1)C(=O)O [SEQ.ID.NO.: 7, Arg*Gly*Cys*Trp*Arg*Trp*Lys*Trp*Arg*Gly*Val*Trp*Tyr*Lys*Lys*Cys*Leu*] (H-RGCWRWKWRGVWYKKCL-OH; disulfide 3-16; N-terminus and C-terminus assumed)
MBC E. coli ATCC 25922 ([1]; ATCC 25922): 7.81 µg/mL (≈ 3.38 µM) | MBC P. aeruginosa ATCC 27853 ([2]; ATCC 27853): 3.4 µg/mL (≈ 1.47 µM)

CC(C)C[C@H](NC(=O)[C@@H]1CSSC[C@H](NC(=O)[C@H](CCCCN)NC(=O)CN)C(=O)N[C@@H](Cc2c[nH]c3ccccc23)C(=O)N[C@@H](CCCCN)C(=O)N[C@@H](Cc2c[nH]c3ccccc23)C(=O)N[C@@H](CCCCN)C(=O)N[C@@H](Cc2ccc(O)cc2)C(=O)N[C@@H](CCCNC(=N)N)C(=O)NCC(=O)N[C@@H](Cc2c[nH]cn2)C(=O)N[C@@H](Cc2ccc(O)cc2)C(=O)N[C@@H](Cc2c[nH]c3ccccc23)C(=O)N[C@@H](CCCNC(=N)N)C(=O)N[C@@H]([C@@H](C)O)C(=O)N1)C(=O)O [SEQ.ID.NO.: 8, Gly*Lys*Cys*Trp*Lys*Trp*Lys*Tyr*Arg*Gly*His*Tyr*Trp*Arg*Thr*Cys*Leu*] (H-GKCWKWKYRGHYWRTCL-OH; disulfide 3-16; N-terminus and C-terminus assumed)
MBC E. coli ATCC 25922 ([1]; ATCC 25922): 9.26 µg/mL (≈ 4.08 µM) | MBC P. aeruginosa ATCC 27853 ([2]; ATCC 27853): 1.81 µg/mL (≈ 0.797 µM)

CC[C@H](C)[C@@H]1NC(=O)CNC(=O)[C@H](CCCNC(=N)N)NC(=O)[C@H](Cc2c[nH]c3ccccc23)NC(=O)[C@H](CCCCN)NC(=O)[C@H](Cc2c[nH]c3ccccc23)NC(=O)[C@H](CCCCN)NC(=O)[C@H](CC(C)C)NC(=O)[C@@H](NC(=O)[C@H](CC(N)=O)NC(=O)[C@@H](N)CCCCN)CSSC[C@@H](C(=O)N[C@@H](CC(C)C)C(=O)O)NC(=O)[C@H](CCCCN)NC(=O)[C@H](CCCNC(=N)N)NC(=O)[C@H](Cc2ccc(O)cc2)NC(=O)[C@H]([C@@H](C)O)NC1=O [SEQ.ID.NO.: 9, Lys*Asn*Cys*Leu*Lys*Trp*Lys*Trp*Arg*Gly*Ile*Thr*Tyr*Arg*Lys*Cys*Leu*] (H-KNCLKWKWRGITYRKCL-OH; disulfide 3-16; N-terminus and C-terminus assumed)
MBC E. coli ATCC 25922 ([1]; ATCC 25922): 7.56 µg/mL (≈ 3.44 µM) | MBC P. aeruginosa ATCC 27853 ([2]; ATCC 27853): 2.57 µg/mL (≈ 1.17 µM)

CC[C@H](C)[C@H](N)C(=O)N[C@@H](CCCNC(=N)N)C(=O)N[C@H]1CSSC[C@@H](C(=O)N[C@@H](CC(C)C)C(=O)O)NC(=O)[C@H](CCCCN)NC(=O)[C@H](CCCCN)NC(=O)[C@H](Cc2c[nH]c3ccccc23)NC(=O)[C@H](CCC(N)=O)NC(=O)[C@H](Cc2c[nH]cn2)NC(=O)CNC(=O)[C@H](CCCNC(=N)N)NC(=O)[C@H](Cc2ccc(O)cc2)NC(=O)[C@H](CC(N)=O)NC(=O)[C@H](Cc2c[nH]c3ccccc23)NC(=O)[C@H]([C@@H](C)O)NC(=O)[C@H](C)NC1=O [SEQ.ID.NO.: 10, Ile*Arg*Cys*Ala*Thr*Trp*Asn*Tyr*Arg*Gly*His*Gln*Trp*Lys*Lys*Cys*Leu*] (H-IRCATWNYRGHQWKKCL-OH; disulfide 3-16; N-terminus and C-terminus assumed)
MBC E. coli ATCC 25922 ([1]; ATCC 25922): 24.6 µg/mL (≈ 11.4 µM) | MBC P. aeruginosa ATCC 27853 ([2]; ATCC 27853): 12.08 µg/mL (≈ 5.59 µM)

CC[C@H](C)[C@@H]1NC(=O)CNC(=O)[C@H](CCCNC(=N)N)NC(=O)[C@H](Cc2c[nH]c3ccccc23)NC(=O)[C@H]([C@@H](C)O)NC(=O)[C@H](Cc2c[nH]c3ccccc23)NC(=O)[C@H](CCCCN)NC(=O)[C@H](CC(C)C)NC(=O)[C@@H](NC(=O)[C@H](CC(N)=O)NC(=O)[C@@H](N)CCCNC(=N)N)CSSC[C@@H](C(=O)N[C@@H](CCCCN)C(=O)O)NC(=O)[C@H](CCCCN)NC(=O)[C@H](CC(C)C)NC(=O)[C@H](Cc2ccc(O)cc2)NC(=O)[C@H]([C@@H](C)O)NC1=O [SEQ.ID.NO.: 22, Arg*Asn*Cys*Leu*Lys*Trp*Thr*Trp*Arg*Gly*Ile*Thr*Tyr*Leu*Lys*Cys*Lys*] (H-RNCLKWTWRGITYLKCK-OH; disulfide 3-16; N-terminus and C-terminus assumed)
MBC E. coli ATCC 25922 [1, 3]: 11.72 µg/mL (≈ 5.41 µM) | MBC P. aeruginosa ATCC 27853 [2, 3]: 1.08 µg/mL (≈ 0.498 µM)

AKCRPLHTRGKQSAVCV [Peptide P14, reference compound]
MBC E. coli ATCC 25922 [1, 3]: inactive | MBC P. aeruginosa ATCC 27853 [2, 3]: inactive

ANCWTRKIRGVVGVSCG [Peptide P195, reference compound]
MBC E. coli ATCC 25922 [1, 3]: inactive | MBC P. aeruginosa ATCC 27853 [2, 3]: inactive

FFCGNKRWRGNYQGSCK [Peptide P127, reference compound]
MBC E. coli ATCC 25922 [1, 3]: inactive | MBC P. aeruginosa ATCC 27853 [2, 3]: inactive
